# From patent publication US20250186379A1, “METHODS AND AGENTS FOR DECREASING INSULIN RESISTANCE” (Whitehead Institute for Biomedical Research, priority 2021, published 2025)
# Legend:
# IR-FKBP condensates = experiment: tc-PALM of IR-Dendra2-FKBP condensate lifetime in HepG2 cells; assay type: cell-based, human; settings: HepG2 cells expressing IR-FKBP; 5 μM AP1903 16 hours vs DMSO
# Text: A CRISPR/Cas9 system was used to generate genetically modified HepG2 cell lines. Target sequences were cloned into a plasmid containing sgRNA backbone, a codon-optimized version of Cas9 and mCherry. For IR targeting, two Cas9 gRNAs were used. For the generation of the IR-mEGFP, IR-Dendra2, and IR-Dendra2-FKBP endogenously tagged lines, homology directed repair templates were cloned into pUC19 using NEBuilder HiFi DNA Assembly Master Mix (NEB, E2621S). For IR-mEGFP and IR-Dendra2 cell lines, the homology repair template consisted of mEGFP or Dendra2 cDNA sequence flanked on either side by 800 bp homology arms amplified from HepG2 genomic DNA using PCR (FIG. 27A). […]
# Widefield, live-cell, super-resolution imaging was performed in a photo-activation localization microscopy (PALM) approach using a Nikon Eclipse Ti microscope with a 100× oil immersion objective. […] During each imaging cycle, a 2400-frame video stream including a (256 pixel)^2 region of interest (ROI) was recorded in 20 Hz acquisition rate with the EM-gain setting as 1000 on an Andor iXon Ultra 897 EMCCD. […]
# Temporal clustering: For each spatial cluster, time-correlated PALM (tc-PALM) analysis was performed along the time axis to extract the truly colocalized, time-correlated multi-molecule bursting events. […] More details about the quantitative validations and statistics of tc-PALM analysis can be found in FIG. 30.
# IR-FKBP = experiment: Western blotting and imaging of IR activity in HepG2 cells expressing IR-GFP-FKBP; assay type: cell-based, human; settings: 5 μM AP1903 16 hours vs DMSO
# Text: For experiments that forced reduction in IR condensate dynamics, the vector used in this assay was modified from pJH135_pb_MCPx2_mCherry_rTTA vector^11. IR-mEGFP-FKBP, which consists of the insulin receptor cDNA, flexible linker 1, mEGFP, flexible linker 2, and four copies of FKBP, was cloned into PmeI and NheI digested pJH135_pb_MCPx2_mCherry_rTTA using Gibson cloning by following the manufacturer's instructions (NEB, E2621S). This vector is called JP204 pb_TetON_INSR_2A_GFP_Dmbr4.
# For experiments that forced reduction in IR condensate dynamics, 1×10^5 cells/cm^2 HepG2 cells were transfected with 0.07 μg/cm^2 pJP204_pb_TetON_INSR_2A_GFP_Dmbr4 using Lipofectamine 3000 (Invitrogen, L3000). On day 2, the cells were treated with 100 ng/ml doxycycline (Sigma, D9891-5G). […]
# Cells were washed with ice-cold PBS (Life Technologies, AM9625) and lysed in Cell Lytic M (Sigma Aldrich C2978) supplemented with protease and phosphatase inhibitors (Sigma Aldrich, 11873580001 and 4906837001) directly on the wells. […] Super natant was collected and protein concentration was determined using a BCA Protein Assay Kit (Life Technologies, 23250) according to the manufacturer's instructions. […] Immunoblot quantification was performed using the “analyze gel” tool on Fiji/ImageJ v2.1.0/153c.
# To quantify pIRS1 fluorescent signal in IR puncta/condensates manually, Airyscan images were opened on Fiji as composite images. […]
smiles,measurement,setting,value
CC[C@H](C(=O)N1CCCC[C@H]1C(=O)O[C@H](CCc1ccc(OC)c(OC)c1)c1cccc(OCC(=O)NCCNC(=O)COc2cccc([C@@H](CCc3ccc(OC)c(OC)c3)OC(=O)[C@@H]3CCCCN3C(=O)[C@@H](CC)c3cc(OC)c(OC)c(OC)c3)c2)c1)c1cc(OC)c(OC)c(OC)c1 [AP1903],lifetime of IR condensates,IR-FKBP condensates,significantly increased the lifetime of IR condensates
same,"IR functional activity (pIR-FKBP, pIRS1)",IR-FKBP,less functionally active
